# “Also recorded” adds a separate entry of the source. Marks after values point to notes of the source that are not given here. Ends that are not written are not given here.
# B1: Lumican: whole recombinant human lumican (protein, UniProt P51884 19-338, looked up)
# Lumican: QYYDYDFPLSIYGQSSPNCAPECNCPESYPSAMYCDELKLKSVPMVPPGIKYLYLRNNQIDHIDEKAFENVTDLQWLILDHNLLENSKIKGRVFSKLKQLKKLHINHNNLTESVGPLPKSLEDLQLTHNKITKLGSFEGLVNLTFIHLQHNRLKEDAVSAAFKGLKSLEYLDLSFNQIARLPSGLPVSLLTLYLDNNKISNIPDEYFKRFNALQYLRLSHNELADSGIPGNSFNVSSLVELDLSYNKLKNIPTVNENLENYYLEVNQLEKFDIKSFCKILGPLSYSKIKHLRLDGNRISETSLPPDMYECLRVANEVTLN
# How the values were obtained:
# HLAB*2705 = HLAB*2705 (Homo sapiens, UniProt P01889, D138H/D201E/E176V/E204Q/G107R/H137Y/K202T/N104T/N87E/Q56L/Q94K/R106L/R155S/R180L/S101D/S121N/S48T/Y140D/Y33H/Y91C); assay: REVEAL MHC-peptide binding assay; conditions: for % Positive Control: REVEAL binding score relative to positive control peptide, pass threshold ≥45%
# [1] = tested on: T cells of patients with AS; conditions: known from Kuon et al. 1997; cited from earlier work
# Lewis rats = assay: Immunization of Lewis rats with peptide in CFA (uveitis/arthritis); format: in vivo, rat; design: histol Average / Arthritis Total: scale not given here; conditions: for Arthritis Total / Arthritis day 25 / incidence / histol Average: 50 μg peptide/animal; for clin uveitis: 6 Lewis rats, 50 μg peptide/animal s.c. in CFA; for incidence: eyes with histological findings / eyes scored; for animals immunised that developed arthritis: groups of 6 animals, not HLA-B27 transgenics; for histol Average: histological uveitis score of eyes
# Method: Animals: Lewis rats, age 6 weeks,
# Peptides were emulsified (sonification) in CFA (50:50, CFA:Peptid) supplemented with M Tuberculosis H37RA (BD, Heidelberg, Germany) to a final concentration of 2.5 mg/ml
# Peptide is injected s.c. in both hindlegs, 50 μg peptide/200 μl emulsion, 100 μl/leg,
# Group size: 6 animals, 3 groups
# 7 days post immunization animals were examined daily (eyes and feet)
# Eyes were embedded in tissue tec and frozen at −80 degree.
# 8 μm cryo section were stained with hematoxilin and graded.
# Rats = assay: Induction of oral tolerance in rats; format: in vivo, rat; conditions: for affected joints / average score/animal / incidence: 4 rats
# PBMC = assay: Ex vivo IFN-γ EliSpot assay; conditions: for IFN-γ response to individual peptide compared to the controls: one HLA B27 subject of 2 (B27004, B27007), p<0.001
# [2] = PBS-fed 3 x, immunized with 100 μg peptide
# [3] = fed 200 μg peptide 3 x, immunized with 100 μg of the same peptide
molecule,measurement,setting,value
8 (DRASFIKNL; Collagen peptide fragment) [Peptide 8],% Positive Control,HLAB*2705,0.04%
same,stimulation of T cells of patients with AS,[1],stimulate T cells of patients with AS
9 (SRHHAFCFR; Aggrecan peptide fragment) [Peptide 9],% Positive Control,HLAB*2705,0.02%
same,stimulation of T cells of patients with AS,[1],stimulate T cells of patients with AS
10 (ARGQPGVMG) [Peptide 10],% Positive Control,HLAB*2705,1.06%
ARKLLLDNL [Peptide P2],% Positive Control,HLAB*2705,5.26%
same,Arthritis Total,Lewis rats,8
same,clin uveitis,Lewis rats,0
same,Arthritis day 25,Lewis rats,8
same,incidence,Lewis rats,5/11*
same,animals immunised that developed arthritis,Lewis rats,5/6
same,histol Average,Lewis rats,0.181
same,affected joints,Rats; [2],3
same,average score/animal,Rats; [2],1.875
same,incidence,Rats; [2],2/4
same,average score/animal,Rats; [3],3.25
same,incidence,Rats; [3],1/4
same,histological score,"Rats; left eye of rat 1-3, PBS-fed, imm. P2D6",2-3
KRFNALQYL [human lumican residues 226-234],% Positive Control,HLAB*2705,0.24%
same,binding relative to the positive control peptides,"HLAB*2705; in vitro MHC-peptide binding assay, HLA-B2705",significant binding
same,Arthritis Total,Lewis rats,3
same,clin uveitis,Lewis rats,0
same,Arthritis day 25,Lewis rats,0
same,incidence,Lewis rats,3/12
same,histol Average,Lewis rats,0.125
"KRLAETLAL [compound 1, KRLAETLAL]",% Positive Control,HLAB*2705,105.51%
LQNNLIETI (Fragment of keratocan protein),IFN-γ response to individual peptide compared to the controls,PBMC,significant increase in response
LQYLRLSHN,IFN-γ response to individual peptide compared to the controls,PBMC,significant increase in response
NRFSVAYML [Peptide P3],% Positive Control,HLAB*2705,0.00%
same,Arthritis Total,Lewis rats,4
same,clin uveitis,Lewis rats,0
same,Arthritis day 25,Lewis rats,2
same,incidence,Lewis rats,2/12
same,histol Average,Lewis rats,0.083
same,affected joints,Rats; [2],10
same,average score/animal,Rats; [2],2.75-3.00
same,incidence,Rats; [2],3/4
same,induction of oral tolerance,Rats; compared with P2,induces oral tolerance more effectively than P2
same,affected joints,Rats; [3],0
same,average score/animal,Rats; [3],0
same,incidence,Rats; [3],0/4
same,development of arthritis or uveitis,Rats; rats fed with P3 and immunized with P3,None of the rats fed with P3 and immunized with P3 developed arthritis or uveitis; also recorded: None of the animals who received P3 had evidence of arthritis or uveitis
QLEDIRLDG (A second opticin protein fragment),IFN-γ response to individual peptide compared to the controls,PBMC,significant increase in response
B1,animals immunised that developed arthritis,Lewis rats,all developed arthritis
same,patients demonstrating increased IFN-γ production,PBMC; HLA B27 AU patients,8 of 10
same,"Interferon gamma response, Patients (N = 10)","PBMC; number of HLA B27 AU patients responding, PBMC, 24 hours",8
same,"Interferon gamma response, Controls (N-6)","PBMC; number of healthy controls responding, PBMC, 24 hours",2
same,IFN-γ response of HLA B27 AU patients vs average of healthy controls,"PBMC; ten patients vs controls n=6, one way ANOVA, Bonferroni, lumican 2.5 μg/mL",significant difference

# Reference: patent publication US10364277B2, “Diagnosis and treatment of autoimmune diseases” (NewSouth Innovations Pty Limited, priority 2013, dated 2019)
